Reference: patent publication US8841259B2, “Compositions and methods for treating vascular permeability” (Joslin Diabetes Center, priority 2005, dated 2014)

How the values were obtained:
[1] = test system: retinal vascular permeability (RVP) in rats; experiment: Retinal vascular permeability by vitreous fluorophotometry after intravitreal injection; assay type: in vivo, rat; details: for RVP (vitreous fluorescein intensity): CA-1 200 ng/eye, BSS control 7.4 au; for effect on CA-1 induced permeability: co-injection of serpin family proteins
Description: (§1) To measure retinal vascular permeability, 265 male Sprague Dawley and 12 male Long-Evans rats (Taconic Farms, Germantown, N.Y.) with initial body weights of 250 g were used. Experiments were performed in accordance with guidelines from the Association for Research in Vision and Opthalmology and approval from the Animal Care and Use committee of the Joslin Diabetes Center. Video fluorescein angiography was performed using a scanning laser opthalmoscope (Rodenstock Instrument, Munich, Germany) (Horio et al., Diabetologia 47:113-123 (2004)). Vitreous fluorophotometry and administration of fluorescein-dextran was performed as described previously (Aiello et al., Diabetes 46:1473-1480 (1997)).
Intravitreal injection of CA-1 increased RVP, as measured by vitreous fluorophotometry, in a dose-dependent manner (FIG. 3A), with a maximal increase of 2.3 fold (p<0.05) at 2 μg. […] The effect of a single dose of CA-1 on RVP was sustained at 59% over control at 24 hours post injection (FIG. 3B).

[2] = test system: retinal vascular permeability (RVP) in rats; experiment: Video fluorescein angiography of rat retina after intravitreal injection; assay type: in vivo
Description: as §1
Carbonic anhydrase was not detected by either mass spectroscopy or western blot analysis in the vitreous of untreated Sprague Dawley rats.

[3] = test system: RVP in rat eyes injected with human vitreous; experiment: Transplant of human vitreous into rat vitreous, RVP measurement; assay type: in vivo; details: vitreous pretreated with 10 μM
Description: In these tests, 10 μl of human vitreous was injected into the rat vitreous compartment and the response on retinal vascular permeability was measured.

[4] = test system: retinal vascular permeability (RVP) in rats; experiment: Retinal Evans blue permeability after intravitreal lysed RBC or CA-1; assay type: in vivo, rat
Description: To prepare lysed RBCs, 3 ml rat blood in 15 ml saline was centrifuged at 1,000 g for 10 minutes; the plasma and buffy coat were discarded. The RBCs were then washed in 12 ml saline. The packed cells were frozen in liquid nitrogen for 5 minutes and then allowed to thaw at room temperature. The lysed RBCs were centrifuged at 12,000 rpm for 30 minutes. The supernatant was used for experiment. […] Approximate 21 hours later, Evans blue was injected at a dosage of 30 mg/kg. After the dye had circulated for 3 hours the rats were perfused via the left ventricle with saline. The retina were harvested and Evans blue dye was extracted by incubation in 0.3 ml formamide for 20 hours at 60° C. The extract was centrifuged (14,000 rpm for 30 minutes). The absorbance of the filtrate was measured with a spectrophotometer at 620 nm. The concentration of dye in the extracts was calculated from a standard curve.

[5] = test system: retina of streptozotocin diabetic rats; experiment: OCT imaging of retinal thickness in diabetic rats after intravitreal CA-1; assay type: in vivo, rat
Description: Rats had diabetes induced by intraperitoneal injection of streptozotocin (55 mg/kg) after overnight fast. Diabetes was confirmed after 24 hours with blood glucose greater than 250 mg/dl. After 2 weeks of diabetes, rats were injected intravitreally with CA-1 or BSS and the retinas imaged by OCT after 48 hours. Retinal ultrastructure was imaged and quantitatively measured using a high-speed, ultrahigh resolution OCT system with Fourier/spectral domain detection. Using a broadband superluminescent diode light source (Superlum Diodes Limited, Moscow, Russia) with a 155 nm bandwidth, a 2.6 μm axial resolution in tissue was achieved after digital spectral shaping. The imaging speed was 26,000 axial scans per second and the system sensitivity was 96 dB with an axial (depth) scan range of 1.3 mm in tissue. The OCT research instrument was designed for small animal retinal imaging and used a post-objective scanning microscope with a 10 μm transverse resolution. Corneal refraction was compensated with a coverslip and Goniosol (CIBA Vision Ophthalmics). Each data set consisted of 256 images with 512 axial scans per image, acquired in a raster pattern on the retina. Measurements of intraretinal layer thicknesses were performed on individual cross sectional OCT images.

[6] = test system: blood-brain barrier permeability in rats; experiment: Blood-brain barrier permeability to Evans blue after subdural infusion; assay type: in vivo, rat
Description: Approximately 22 hours later, 0.7 ml Evans blue was injected through a jugular vein catheter. After the dye circulated for 120 minutes, the rats were perfused with 50 ml saline through the left ventricle at 110 mmHg pressure. After decapitation, the brain was weighed and Evan's blue was extracted by incubating each brain in 1 ml of formamide for 20 hours at 60° C. The extract was centrifuged (14,000 rpm for 30 minutes). The absorbance of the filtrate was measured with a spectrophotometer at 620 nm. The concentration of dye in the extracts was calculated from a standard curve of Evans blue in formamide, normalized to the brain weight, and expressed per gram of tissue.

[7] = intravitreal injection of 100 μM
[8] = diabetic rat, 48 hours after intravitreal injection, OCT

Molecule: CC(=O)Nc1nnc(S(N)(=O)=O)s1 [acetazolamide, reference compound]
- effect on basal RVP ([1]; 10 μM): no effect
- inhibition at 10 µM ([1]; Rattus norvegicus, co-injection of 10 μM, p<0.05, read-out: inhibition of CA-1 induced RVP): 68%
- effect on increase in RVP induced by CA-1 ([2]; co-injection 10 μM with CA-1): blocked
- effect on RVP in rat eyes injected with vitreous from noDR and NDM groups [3]: did not affect
- RVP in rat eyes injected with vitreous from subjects with PDR ([3]; reduced from 13.67±5.23, P=0.017, n=5): 9.20±3.85
- effect on increase in RVP by lysed RBC ([4]; pretreatment of lysed RBC with 10 μM, P<0.05): blocked

Molecule: CC(=O)N[C@@H](CC(C)C)C(=O)N[C@@H](CC(C)C)C(=O)N[C@H](C=O)CCCNC(=N)N [leupeptin, reference compound]
- reduction of CA-1 stimulated RVP [1, 7]: 71%

Molecule: CA-1: carbonic anhydrase-1, extracellular erythrocyte enzyme injected as vascular permeability factor
- increase of RVP ([1]; 200 ng/eye (20 μg/ml) intravitreal, vs BSS, P<0.05): 2.4 fold
- maximal increase of RVP ([1]; at 2 μg intravitreal, p<0.05): 2.3 fold
- EC50 as final concentration in vitreous ([1]; following dilution in 100 uL of rat vitreous): about 670 pg/μL
- EC50 for increase of RVP ([1]; intravitreal injection): 67 ng
- RVP (vitreous fluorescein intensity) ([1]; intravitreal injection): 17.4 au
- RVP over control ([1]; single dose, 24 hours post injection): 59%
- retinal vascular leakage (fluorescein and 2000 kDa fluorescein-dextran) ([2]; 48 hours after intravitreal injection): focal areas of retinal vascular leakage were observed
- retinal fluorescein leakage ([2]; intravitreal 2 μg/ml, at 30 minutes, vs baseline or BSS): increased retinal fluorescein leakage
- increase of ONL share of retinal thickness compared with BSS-treated diabetic rats ([5]; 48 hours): 17%
- increase of ONL share of retinal thickness compared with nondiabetic rats ([5]; 48 hours): 18%
- ONL share of overall retinal thickness ([5]; diabetic rat, 48 hours): 38%
- increase in outer nuclear layer (ONL) thickness vs contralateral saline vehicle eye [5, 8]: 30%
- increase in retina thickness vs contralateral saline vehicle eye [5, 8]: 12%
- RVP compared with eyes that received BSS ([4]; intravitreal injection, Evans blue): 3.0 fold
- Evan's blue leakage on posterior and anterior surfaces of the brain ([6]; subdural infusion, 24 hours): induced intense focal areas of Evan's blue leakage
- increase of permeability in brain compared to BSS ([6]; subdural infusion, Evan's blue quantification, P<0.05): 2.3 fold

Molecule: Hoe 140 [reference compound]
- reduction of CA-1 stimulated RVP ([1]; co-injection with CA-1): 67%

Molecule: VEGF
- RVP (vitreous fluorescein intensity) ([1]; intravitreal injection): 14.5 au

Molecule: aprotinin [reference compound]
- reduction of CA-1 stimulated RVP [1, 7]: 50%

B1: angiotensinogen: serpin family protein (protein, UniProt P01019 25-476, looked up)
Angiotensinogen: DRVYIHPFHLVIHNESTCEQLAKANAGKPKDPTFIPAPIQAKTSPVDEKALQDQLVLVAAKLDTEDKLRAAMVGMLANFLGFRIYGMHSELWGVVHGATVLSPTAVFGTLASLYLGALDHTADRLQAILGVPWKDKNCTSRLDAHKVLSALQAVQGLLVAQGRADSQAQLLLSTVVGVFTAPGLHLKQPFVQGLALYTPVVLPRSLDFTELDVAAEKIDRFMQAVTGWKTGCSLMGASVDSTLAFNTYVHFQGKMKGFSLLAEPQEFWVDNSTSVSVPMLSGMGTFQHWSDIQDNFSVTQVPFTESACLLLIQPHYASDLDKVEGLTFQQNSLNWMKKLSPRTIHLTMPQLVLQGSYDLQDLLAQAELPAILHTELNLQKLSNDRIRVGEVLNSIFFELEADEREPTESTQQLNKPEVLEVTLNRPFLFAVYDQSATALHFLGRVANPLSTA
- effect on CA-1 induced permeability [1]: did not block

B2: C1-INH: Complement-1 Inhibitor, inhibits the serum protease kallikrein (protein, UniProt P05155 23-500, looked up)
Plasma protease C1 inhibitor: NPNATSSSSQDPESLQDRGEGKVATTVISKMLFVEPILEVSSLPTTNSTTNSATKITANTTDEPTTQPTTEPTTQPTIQPTQPTTQLPTDSPTQPTTGSFCPGPVTLCSDLESHSTEAVLGDALVDFSLKLYHAFSAMKKVETNMAFSPFSIASLLTQVLLGAGENTKTNLESILSYPKDFTCVHQALKGFTTKGVTSVSQIFHSPDLAIRDTFVNASRTLYSSSPRVLSNNSDANLELINTWVAKNTNNKISRLLDSLPSDTRLVLLNAIYLSAKWKTTFDPKKTRMEPFHFKNSVIKVPMMNSKKYPVAHFIDQTLKAKVGQLQLSHNLSLVILVPQNLKHRLEDMEQALSPSVFKAIMEKLEMSKFQPTLLTLPRIKVTTSQDMLSIMEKLEFFDFSYDLNLCGLTEDPDLQVSAMQHQTVLELTETGVEAAAASAISVARTLLVFEVQQPFLFVLWDQQHKFPVFMGRVYDPRA
- effect on VEGF-induced retinal fluorescein permeability ([1]; co-injection): did not affect
- reduction of CA-1 stimulated RVP ([1]; co-injection with CA-1): 92%
- effect on CA-1-induced cerebral vascular permeability ([6]; subdural, with CA-1): blocked

B3: PEDF: pigment epithelium-derived factor, serpin family protein (protein, UniProt P36955 20-418, looked up)
Pigment epithelium-derived …: QNPASPPEEGSPDPDSTGALVEEEDPFFKVPVNKLAAAVSNFGYDLYRVRSSTSPTTNVLLSPLSVATALSALSLGAEQRTESIIHRALYYDLISSPDIHGTYKELLDTVTAPQKNLKSASRIVFEKKLRIKSSFVAPLEKSYGTRPRVLTGNPRLDLQEINNWVQAQMKGKLARSTKEIPDEISILLLGVAHFKGQWVTKFDSRKTSLEDFYLDEERTVRVPMMSDPKAVLRYGLDSDLSCKIAQLPLTGSMSIIFFLPLKVTQNLTLIEESLTSEFIHDIDRELKTVQAVLTVPKLKLSYEGEVTKSLQEMKLQSLFDSPDFSKITGKPIKLTQVEHRAGFEWNEDGAGTTPSPGLQPAHLTFPLDYHLNQPFIFVLRDTDTGALLFIGKILDPRGP
- effect on CA-1 induced permeability [1]: did not block
